# From patent publication US11337950B2, “Biologically active cannabidiol analogs” (University of Mississippi, priority 2016, dated 2022)
# Where “and” joins values, the source holds several entries; their conditions need not be identical. Equal entries are not always repeated.
# Legend:
# [1] = Solubility of CBD and its analogs in Tocrisolve emulsion; assay type: physicochemical
# Method: Formulations: 0.5% w/v CBD equivalent in Tocrisolve emulsion.
# Tocrisolve composition: […] emulsion composed of a 1:4 ratio of soya oil/water that is emulsified with the block co-polymer Pluronic F68. Manufacturing process for the Tocrisolve emulsion: • Add accurately weighed amount of drug a glass vial. • Add required volume of Torcisolve blank emulsion to each vial • Vortex each vial for 5 minutes. • Sonicate each vial for 10 minutes. • Centrifuge each vial for 5 minutes at 9000 rpm at 25° C. • Collect the supernatant and analyze for CBD, CBD-Val Mono and CBD-Val-HS mono as applicable.
# [2] = Bioavailability of CBD-Mono-VHS from a lipophilic suppository (Example 16); assay type: in vivo; parameters: unit not given here; conditions: rats, rectal 7.5 mg, Lipophilic (Wecobee M) Suppository; for Plasma Concentration of CBD-Mono-VHS: individual animals
# Method: CBD-Mono-Val-Mono-HS was formulated in Wecobee M suppository base (a triglyceride lipophilic base) at 75 mg/mL of melted base. The study was carried out in a cannulated rat model. Three animals were administered 100 μl. each of the semisolid formulation for a rectal dose of 7.5 mg CBD-Mono-VHS. This is followed by collection of blood samples (250 μl.) at each data point (0, 0.25, 0.5, 1, 2, 4, 6, and 24 hr.). The blood was centrifuged and the plasma was used for LC-MS/MS analysis.
# [3] = Bioavailability of CBD-Mono-VHS from a hydrophilic suppository, PEG 1000 (Example 17); assay type: in vivo; parameters: unit not given here; conditions: rats, rectal 7.5 mg, Hydrophilic (PEG 1000) Suppository; for Plasma Concentration of CBD-Mono-VHS: individual animals
# Method: CBD-Mono-Val-Mono-HS was formulated in PEG 1000 suppository base (a hydrophilic suppository base) at 75 mg/mL of melted base. The study was carried out in a cannulated rat model. Three animals were administered 100 μl. each of the semisolid formulation for a rectal dose of 7.5 mg CBD-Mono-VHS. […] The blood was centrifuged and the plasma was used for LC-MS/MS analysis.
# [4] = Oral bioavailability of CBD-Mono-VHS in sesame seed oil (Example 18); assay type: in vivo; conditions: rats; for Plasma Concentration of CBD-Mono-VHS, Average / Plasma Concentration of CBD-Mono-VHS: oral 4 mg/animal in sesame seed oil; for Plasma Concentration of CBD-Mono-VHS: individual animals
# Method: CBD-Mono-VHS was formulated in a sesame seed oil (Welch, Holme and Clark Co. lot #39375) formulation composed of 40 mg/mL solution of the drug substance/mi. Animals (cannulated rats, n=4) were dosed 100 μl of the oil solution by oral gavage. Blood samples were collected at 0, 0.25, 0.5, 1, 2, 4, 6, 8, and 24 hr. after dosing. The blood samples were centrifuged and the plasma was analyzed for CBD-Mono-VHS. Table 7 and FIG. 5 show the results, with very high blood levels which remain significant (>10 ng/mL) at 24 hr. after dosing.
# [5] = Organ distribution of CBD-Mono-VHS after oral administration (Example 19); assay type: in vivo, rats; conditions: rat, oral 4 mg/animal
# Method: To determine whether CBD-Mono-VHS reaches the organs and especially the brain, two cannulated rats were administered same dose as those in Example 18. One rat was sacrificed at 2 hr. after dosing and the other at 4 hr. after dosing and the organs were harvested (brain, liver, and spleen) as well as blood for analysis.
# [6] = tested on: cisplatin-induced tactile allodynia; test: Cisplatin-induced tactile allodynia model, electronic von Frey (Examples 23, 24); assay type: in vivo, C57BL/6 mice; conditions: Example 24, mice; for Doses with mean withdrawal thresholds significantly higher compared to vehicle: ps≤0.0001
# [7] = Organ distribution of CBD-Mono-VHS after oral administration (Example 19); assay type: in vivo, rats; conditions: rat, oral 4 mg/animal; remark: listed apart in the source
# [8] = tested on: morphine place preference; test: Morphine conditioned place preference, model of addiction (Example 25); conditions: mice, morphine groups, IP; CBD 2.5-20.0 mg/kg, CBD-val-HS 10.0 mg/kg
smiles,measurement,setting,value
"C=C(C)C1CCC(C)=CC1c1c(O)cc(CCCCC)cc1OC(=O)[C@@H](NC(=O)CCC(=O)O)C(C)C (stereo partly shown) [CBD-Mono-VHS, CBD-Mono-Valinate-Mono-Hemisuccinate]",Maximum solubility achieved in Tocrisolve,[1]; as the substance itself,1.18 % w/v
same,Maximum solubility achieved in Tocrisolve (In terms of CBD),[1]; in terms of CBD,(0.61) % w/v
same,"Plasma Concentration of CBD-Mono-VHS, Average",[2]; 0 hr,0.0
same,Plasma Concentration of CBD-Mono-VHS,[2]; 0 hr,0.0
same,"Plasma Concentration of CBD-Mono-VHS, Average",[2]; 0.25 hr,6.0
same,Plasma Concentration of CBD-Mono-VHS,[2]; 0.25 hr,7.1 (2×) and 3.9
same,"Plasma Concentration of CBD-Mono-VHS, Average",[2]; 0.5 hr,11.1
same,Plasma Concentration of CBD-Mono-VHS,[2]; 0.5 hr,9.0 and 12.8 and 11.6
same,"Plasma Concentration of CBD-Mono-VHS, Average",[2]; 1 hr,15.5
same,Plasma Concentration of CBD-Mono-VHS,[2]; 1 hr,14.1 and 13.8 and 18.5
same,"Plasma Concentration of CBD-Mono-VHS, Average",[2]; 2 hr,20.6
same,Plasma Concentration of CBD-Mono-VHS,[2]; 2 hr,12.7 and 14.5 and 34.6
same,"Plasma Concentration of CBD-Mono-VHS, Average",[2]; 4 hr,31.5
same,Plasma Concentration of CBD-Mono-VHS,[2]; 4 hr,22.0 and 27.5 and 45.1
same,"Plasma Concentration of CBD-Mono-VHS, Average",[2]; 6 hr,39.8
same,Plasma Concentration of CBD-Mono-VHS,[2]; 6 hr,24.8 and 41.6 and 53.0
same,"Plasma Concentration of CBD-Mono-VHS, Average",[2]; 24 hr,17.2
same,Plasma Concentration of CBD-Mono-VHS,[2]; 24 hr,7.3 and 44.3
same,"Plasma Concentration of CBD-Mono-VHS, Average",[3]; 0 hr,0.0
same,Plasma Concentration of CBD-Mono-VHS,[3]; 0 hr,0.0
same,"Plasma Concentration of CBD-Mono-VHS, Average",[3]; 0.25 hr,13.2
same,Plasma Concentration of CBD-Mono-VHS,[3]; 0.25 hr,14.7 and 10.1 and 14.8
same,"Plasma Concentration of CBD-Mono-VHS, Average",[3]; 0.5 hr,38.5
same,Plasma Concentration of CBD-Mono-VHS,[3]; 0.5 hr,44.2 and 38.4 and 32.9
same,"Plasma Concentration of CBD-Mono-VHS, Average",[3]; 1 hr,89.4
same,Plasma Concentration of CBD-Mono-VHS,[3]; 1 hr,106.0 and 54.3 and 108.0
same,"Plasma Concentration of CBD-Mono-VHS, Average",[3]; 2 hr,114.7
same,Plasma Concentration of CBD-Mono-VHS,[3]; 2 hr,108.0 and 123.0 and 113.0
same,"Plasma Concentration of CBD-Mono-VHS, Average",[3]; 4 hr,57.2
same,Plasma Concentration of CBD-Mono-VHS,[3]; 4 hr,57.5 and 60.5 and 53.5
same,"Plasma Concentration of CBD-Mono-VHS, Average",[3]; 6 hr,28.7
same,Plasma Concentration of CBD-Mono-VHS,[3]; 6 hr,18.6 and 37.4 and 30.1
same,"Plasma Concentration of CBD-Mono-VHS, Average",[3]; 8 hr,24.0
same,Plasma Concentration of CBD-Mono-VHS,[3]; 8 hr,44.8 and 21.6 and 27.3
same,"Plasma Concentration of CBD-Mono-VHS, Average",[3]; 24 hr,0.9
same,Plasma Concentration of CBD-Mono-VHS,[3]; 24 hr,0.0 and 2.5 and 2.6
same,"Plasma Concentration of CBD-Mono-VHS, Average",[4]; 0 hr,0.0 ng/mL
same,Plasma Concentration of CBD-Mono-VHS,[4]; 0 hr,0.0 ng/mL
same,"Plasma Concentration of CBD-Mono-VHS, Average",[4]; 0.25 hr,1029.0 ng/mL
same,Plasma Concentration of CBD-Mono-VHS,[4]; 0.25 hr,1255.5 ng/mL and 1512.3 ng/mL and 370.2 ng/mL and 978.0 ng/mL
same,"Plasma Concentration of CBD-Mono-VHS, Average",[4]; 0.5 hr,1626.3 ng/mL
same,Plasma Concentration of CBD-Mono-VHS,[4]; 0.5 hr,1174.8 ng/mL and 2655.0 ng/mL and 1437.1 ng/mL and 1238.2 ng/mL
same,"Plasma Concentration of CBD-Mono-VHS, Average",[4]; 1 hr,2127.5 ng/mL
same,Plasma Concentration of CBD-Mono-VHS,[4]; 1 hr,1400.6 ng/mL and 3120.9 ng/mL and 2496.6 ng/mL and 1492.0 ng/mL
same,"Plasma Concentration of CBD-Mono-VHS, Average",[4]; 2 hr,593.5 ng/mL
same,Plasma Concentration of CBD-Mono-VHS,[4]; 2 hr,392.2 ng/mL and 1317.3 ng/mL and 399.5 ng/mL and 264.8 ng/mL
same,"Plasma Concentration of CBD-Mono-VHS, Average",[4]; 4 hr,234.8 ng/mL
same,Plasma Concentration of CBD-Mono-VHS,[4]; 4 hr,115.1 ng/mL and 423.3 ng/mL and 116.1 ng/mL and 284.8 ng/mL
same,"Plasma Concentration of CBD-Mono-VHS, Average",[4]; 6 hr,212.0 ng/mL
same,Plasma Concentration of CBD-Mono-VHS,[4]; 6 hr,71.4 ng/mL and 181.0 ng/mL and 397.8 ng/mL and 197.8 ng/mL
same,"Plasma Concentration of CBD-Mono-VHS, Average",[4]; 8 hr,152.2 ng/mL
same,Plasma Concentration of CBD-Mono-VHS,[4]; 8 hr,44.6 ng/mL and 89.8 ng/mL and 210.0 ng/mL and 264.4 ng/mL
same,"Plasma Concentration of CBD-Mono-VHS, Average",[4]; 24 hr,27.2 ng/mL
same,Plasma Concentration of CBD-Mono-VHS,[4]; 24 hr,6.5 ng/mL and 37.8 ng/mL and 47.1 ng/mL and 17.5 ng/mL
same,blood levels which remain significant at 24 hr. after dosing,"[4]; oral 4 mg/animal, 24 hr",> 10 ng/mL
same,"Organ level of CBD-Mono-VHS, BRAIN",[5]; 2 HR,556 ng/organ
same,"Organ level of CBD-Mono-VHS, LIVER",[5]; 2 HR,66484 ng/organ
same,"Organ level of CBD-Mono-VHS, SPLEEN",[5]; 2 HR,1438 ng/organ
same,Plasma level of CBD-Mono-VHS,[5]; 2 HR,285 ng/mL
same,"Organ level of CBD-Mono-VHS, BRAIN",[5]; 4 HR,205 ng/organ
same,"Organ level of CBD-Mono-VHS, LIVER",[5]; 4 HR,8301 ng/organ
same,"Organ level of CBD-Mono-VHS, SPLEEN",[5]; 4 HR,392 ng/organ
same,Plasma level of CBD-Mono-VHS,[5]; 4 HR,53 ng/mL
same,"Effect on cisplatin-induced tactile allodynia (eVF paw withdrawal), in words",[6]; 1.0 to 4.0 mg/kg (CBD equivalent) IP alone,dose-dependent attenuation of tactile allodynia that equal 2.5 mg/kg morphine at 3.0 and 4.0 mg/kg
same,"Effect on cisplatin-induced tactile allodynia (eVF paw withdrawal), in words","[6]; 1.0 to 4.0 mg/kg (CBD equivalent) in combination with 0.1 mg/kg morphine, IP",shifted this dose response curve to the left where 2.0 mg/kg CBD-Mono-VHS attenuated tactile allodynia equal to that of 2.5 mg/kg morphine
same,Doses with mean withdrawal thresholds significantly higher compared to vehicle,[6]; IP alone,2.0 to 4.0 mg/kg
same,Doses with mean withdrawal thresholds significantly higher compared to vehicle,"[6]; IP, combination with 0.1 mg/kg morphine",1.0 to 4.0 mg/kg
same,"Organ level of CBD-Mono-VHS, KIDNEY",[7]; 2 HR,353 ng/organ
same,"Organ level of CBD-Mono-VHS, KIDNEY",[7]; 4 HR,115 ng/organ
same,"Effect on morphine place preference, in words",[8],significantly (P=0.005) blocked the addictive effects of morphine
